# Assay results as given in ChEMBL document CHEMBL1201862, “PubChem BioAssay data set” (2004).
# Calls of active or inactive are those of the source. For most assays here, no stated cut-off is given here; in the data, actives have a measured EC50 and inactives only a lower limit.
# How the values were obtained:
# [1] = molecular target: FAD-linked sulfhydryl oxidase ALR (Homo sapiens, UniProt P55789); experiment: inhibitors of human ALR sulfhydryl oxidase, dose response, biochemical, H2O2 detection, luminescence, cherry-pick (AID 493248)
# [2] = system: Streptococcus sp. 'group A'; experiment: growth inhibition of control SK(-) GAS strain, dose response, counter-screen for streptokinase expression inhibitor project, luminescence, kanamycin, BacTiterGlo, confirmation (AID 1900); assay type: functional, organism-based
# Streptococcus = experiment: Group A Streptococcus viability loss, dose response, counter-screen for streptokinase expression inhibitor project, luminescence, BacTiterGlo (AID 1915); assay type: functional, organism-based;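 further: potency for reduction of bacterial viability or growth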
# Streptokinase A = molecular target: T1, Streptokinase A (Streptococcus pyogenes serotype M1, UniProt P10520); experiment: S. pyogenes streptokinase expression inhibitors, potency, dose response, plasminogen activation absorbance, OD405 (AID 1914); assay type: functional, Streptococcus pyogenes M1 GAS;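 further: secreted streptokinase activity via plasminogen activation per viability signal from cell pellet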
# T1 sequence (P10520 whole entry): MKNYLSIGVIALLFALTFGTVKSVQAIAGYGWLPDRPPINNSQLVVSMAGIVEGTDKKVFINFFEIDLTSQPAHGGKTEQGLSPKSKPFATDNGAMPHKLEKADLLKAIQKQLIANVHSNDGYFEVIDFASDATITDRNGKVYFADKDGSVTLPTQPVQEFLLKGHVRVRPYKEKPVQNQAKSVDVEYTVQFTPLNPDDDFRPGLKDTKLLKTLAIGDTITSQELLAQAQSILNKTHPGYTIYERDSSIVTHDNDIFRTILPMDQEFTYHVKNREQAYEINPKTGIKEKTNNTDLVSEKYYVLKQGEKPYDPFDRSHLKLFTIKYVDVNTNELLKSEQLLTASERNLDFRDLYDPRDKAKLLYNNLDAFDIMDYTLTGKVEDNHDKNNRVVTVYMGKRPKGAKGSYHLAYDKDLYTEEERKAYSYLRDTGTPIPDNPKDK
# [3] = molecular target: T2, Ubiquitin-conjugating enzyme E2 N (Homo sapiens, UniProt P61088); assay type: functional;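 further: Dose-response confirmation in a TR-FRET assay detecting UBC13-driven polyubiquitin chain formation, inhibition measured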
# T2 sequence (P61088 whole entry): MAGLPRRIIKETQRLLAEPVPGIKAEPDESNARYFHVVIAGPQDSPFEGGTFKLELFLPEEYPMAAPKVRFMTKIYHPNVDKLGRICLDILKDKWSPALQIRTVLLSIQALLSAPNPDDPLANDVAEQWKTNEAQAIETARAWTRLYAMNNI
# Cytochrome P450 3A4 = Cytochrome P450 3A4 (Homo sapiens, UniProt P08684); conditions: Potency;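 further: confirmatory qHTS run detecting inhibitors and substrates of CYP3A4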
# [4] = molecular target: T3, Corticotropin-releasing factor receptor 2/Corticotropin-releasing factor-binding protein (Homo sapiens, UniProt P24387+Q13324); experiment: activators of CRF receptor 2 with binding protein – uHTS hits, confirmation (AID 602473); assay type: functional; conditions: read-out: EC50_Mean
# T3 sequence (Q13324 whole entry): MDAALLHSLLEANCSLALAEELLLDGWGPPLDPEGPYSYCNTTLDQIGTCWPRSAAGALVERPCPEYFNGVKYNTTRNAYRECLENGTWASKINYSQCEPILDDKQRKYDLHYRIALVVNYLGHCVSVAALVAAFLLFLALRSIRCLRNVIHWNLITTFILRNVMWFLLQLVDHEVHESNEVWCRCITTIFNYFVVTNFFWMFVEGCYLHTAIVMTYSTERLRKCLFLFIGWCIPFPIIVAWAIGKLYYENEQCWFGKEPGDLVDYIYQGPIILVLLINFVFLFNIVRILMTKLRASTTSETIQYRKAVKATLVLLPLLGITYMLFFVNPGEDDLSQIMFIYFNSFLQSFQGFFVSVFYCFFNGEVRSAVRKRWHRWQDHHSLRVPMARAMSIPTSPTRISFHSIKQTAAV
# T3 sequence (P24387 whole entry): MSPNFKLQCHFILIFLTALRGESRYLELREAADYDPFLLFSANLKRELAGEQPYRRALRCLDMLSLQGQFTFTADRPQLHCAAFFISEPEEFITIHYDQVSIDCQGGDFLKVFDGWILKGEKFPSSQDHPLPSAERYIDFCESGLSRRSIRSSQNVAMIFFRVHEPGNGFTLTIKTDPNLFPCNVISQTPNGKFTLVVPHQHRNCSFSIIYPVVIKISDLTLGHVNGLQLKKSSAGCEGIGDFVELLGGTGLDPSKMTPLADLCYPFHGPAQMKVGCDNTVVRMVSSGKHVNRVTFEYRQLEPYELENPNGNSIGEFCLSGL
# [5] = molecular target: T4, RNA-binding protein pos-1 (Caenorhabditis elegans, UniProt G5EF15); experiment: inhibitors of POS-1/mex-3 RNA binding, dose response, biochemical, fluorescence polarization (AID 1964);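 further: purified POS-1 fused to maltose binding protein made in E. coli; potency of compounds blocking POS-1 binding to fluorescent RNA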
# T4 sequence (G5EF15 whole entry): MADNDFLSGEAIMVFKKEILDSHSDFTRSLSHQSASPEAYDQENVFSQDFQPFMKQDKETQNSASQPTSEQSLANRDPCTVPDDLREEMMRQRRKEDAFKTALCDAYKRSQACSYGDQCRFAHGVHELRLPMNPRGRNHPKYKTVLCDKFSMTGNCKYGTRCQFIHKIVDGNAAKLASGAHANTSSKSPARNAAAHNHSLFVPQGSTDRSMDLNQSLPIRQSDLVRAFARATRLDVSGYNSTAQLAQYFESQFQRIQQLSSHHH
# [6] = molecular target: T5, Zinc finger protein mex-5 (Caenorhabditis elegans, UniProt Q9XUB2); experiment: MEX-5/TCR-2 RNA interaction inhibitors, dose response, biochemical, C. elegans, fluorescence polarization (AID 1960)
# T5 sequence (Q9XUB2 whole entry): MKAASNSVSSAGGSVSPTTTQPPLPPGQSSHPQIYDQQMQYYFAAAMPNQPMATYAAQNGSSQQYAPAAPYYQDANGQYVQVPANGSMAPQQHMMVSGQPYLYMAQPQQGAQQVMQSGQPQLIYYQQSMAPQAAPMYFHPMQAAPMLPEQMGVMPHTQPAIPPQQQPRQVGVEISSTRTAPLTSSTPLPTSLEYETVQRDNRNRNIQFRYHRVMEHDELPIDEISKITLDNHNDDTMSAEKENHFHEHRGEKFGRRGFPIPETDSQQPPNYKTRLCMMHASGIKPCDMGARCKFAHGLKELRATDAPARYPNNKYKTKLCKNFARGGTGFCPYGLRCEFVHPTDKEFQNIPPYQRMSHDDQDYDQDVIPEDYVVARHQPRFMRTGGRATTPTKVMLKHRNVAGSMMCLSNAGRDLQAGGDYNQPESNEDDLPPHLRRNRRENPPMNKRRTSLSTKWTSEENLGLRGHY
# [7] = inhibitors of intracellular T. cruzi replication, confirmation, NIH3T3 host cells, beta-gal luminescence (AID 2044); assay type: functional, cell-based;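 further: intracellular parasites grown in NIH/3T3 mouse fibroblasts as host cells; luminescent beta-galactosidase reporter signal from transgenic T. cruzi replicating inside host cells; inhibitors lower the luminescence signal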
# [8] = molecular target: T6, Calpain-2 catalytic subunit (Sus scrofa, UniProt P43367); experiment: pig calpain II inhibitor potency, dose response, biochemical, fluorogenic peptide substrate (AID 1420); assay type: functional
# T6 sequence (P43367 whole entry): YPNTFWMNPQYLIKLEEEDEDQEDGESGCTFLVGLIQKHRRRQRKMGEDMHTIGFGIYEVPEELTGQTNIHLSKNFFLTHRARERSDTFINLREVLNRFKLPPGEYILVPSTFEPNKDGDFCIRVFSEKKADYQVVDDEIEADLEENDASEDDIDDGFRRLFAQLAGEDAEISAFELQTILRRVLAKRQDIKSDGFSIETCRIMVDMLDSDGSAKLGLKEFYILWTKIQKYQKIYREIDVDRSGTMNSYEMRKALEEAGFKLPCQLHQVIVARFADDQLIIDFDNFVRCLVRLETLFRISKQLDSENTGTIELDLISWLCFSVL
# [9] = cytotoxicity toward NIH3T3 fibroblasts, dose response, counter-screen, cell-based, ATP luminescence, mouse fibroblasts (AID 2010); assay type: functional;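 further: cells exposed to compound for about 90 hours before reading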
# [10] = THP-1 cell cytotoxicity, dose response, cytotoxicity control for non-replicating M. tuberculosis project (AID 489025); assay type: functional
# Sequence of FAD-linked sulfhydryl oxidase ALR (P55789 whole entry): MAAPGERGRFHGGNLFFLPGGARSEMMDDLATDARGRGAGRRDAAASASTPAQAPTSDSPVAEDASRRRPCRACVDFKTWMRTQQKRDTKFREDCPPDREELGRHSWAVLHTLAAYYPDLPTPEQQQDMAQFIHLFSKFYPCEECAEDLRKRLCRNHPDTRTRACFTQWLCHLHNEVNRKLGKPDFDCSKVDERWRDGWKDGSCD
# Sequence of Cytochrome P450 3A4 (P08684 whole entry): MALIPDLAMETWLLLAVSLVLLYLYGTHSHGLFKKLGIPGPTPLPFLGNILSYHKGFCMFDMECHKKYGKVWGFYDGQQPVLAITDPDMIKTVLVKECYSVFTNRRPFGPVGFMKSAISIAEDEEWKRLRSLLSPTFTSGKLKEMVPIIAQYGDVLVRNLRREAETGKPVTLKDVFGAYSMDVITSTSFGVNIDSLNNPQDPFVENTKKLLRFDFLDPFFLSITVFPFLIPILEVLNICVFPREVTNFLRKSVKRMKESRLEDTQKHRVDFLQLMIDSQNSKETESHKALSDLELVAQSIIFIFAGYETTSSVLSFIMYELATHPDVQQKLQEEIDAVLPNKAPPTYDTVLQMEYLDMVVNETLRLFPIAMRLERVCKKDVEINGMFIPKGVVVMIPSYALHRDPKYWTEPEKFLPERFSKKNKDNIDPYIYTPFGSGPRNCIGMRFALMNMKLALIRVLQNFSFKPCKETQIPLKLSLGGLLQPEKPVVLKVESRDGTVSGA
compound,measurement,setting,value
Cc1ccc(S(=O)(=O)Nc2c(C(=O)O)[nH]c3ccccc23)cc1C,AC50,[1],10.8 µM (active)
Nc1nc(NC(=O)/C=C/c2ccc(F)cc2)nn1-c1ccccc1,EC50,[2],3.91 µM (active)
same,EC50,Streptococcus,> 150 µM (not active)
same,EC50,Streptokinase A,> 150 µM (not active)
O=c1cc(CO)oc(C(Nc2cccc([N+](=O)[O-])c2)c2ccccn2)c1O (stereo not drawn),IC50,[3],> 20 µM (inactive)
COC1=CC(=O)C(O)=C/C1=C\C=C\c1ccccc1 [OBTUSAQUINONE],AC50,Cytochrome P450 3A4,25.1 µM (inconclusive)
CCCCNc1nc(C)nc2c1nc(-c1ccccc1)n2CCCN(CC)CC,AC50,Cytochrome P450 3A4,25.1 µM (inconclusive)
CC(=O)Nc1ccc2c(c1)C(=O)N(c1cccc(C)c1)C2=O,IC50,[3],> 20 µM (inactive)
CCCCC(=O)NC(=S)NNC(=O)c1ccc(OC)cc1,IC50,[3],> 20 µM (inactive)
same,EC50,[4],5.06 µM (active)
Cc1ccc(S(=O)(=O)NNC(=O)c2ccc3ccccc3n2)cc1,AC50,[1],7 µM (active)
CC1(OC(=O)c2ccc(Cl)nc2)C(=O)C=C2C=C(c3ccsc3)OC=C2C1=O (stereo not drawn),EC50,[5],54.4 µM (active)
same,EC50,[6],41.9 µM (active)
C=CC[n+]1c(C)csc1Nc1cccc(Br)c1,AC50,[1],7.54 µM (active)
C[C@@H]1CC2(OC3C[C@@]4(C)C5=CC[C@H]6C(C)(C)C(O[C@@H]7OC[C@@H](O)[C@H](O)[C@H]7O)CC[C@@]67C[C@@]57CC[C@]4(C)C31)OC(O)C1(C)OC21 (stereo partly drawn),AC50,Cytochrome P450 3A4,5.01 µM (inconclusive)
C=CCn1c(COc2ccccc2)nnc1SCC(=O)N/N=C/c1cc(Cl)ccc1O,EC50,[2],4.37 µM (active)
same,EC50,Streptococcus,48.1 µM (active)
same,EC50,Streptokinase A,> 150 µM (not active)
CCN(CC)CCn1c(-c2ccccc2)nc2c(NC3CCCCC3)nc(C)nc21,AC50,Cytochrome P450 3A4,15.8 µM (inconclusive)
CCN1/C(=C/C(C)=O)Sc2ccc(OC)cc21,AC50,Cytochrome P450 3A4,25.1 µM (inconclusive)
O=C(C1=C(O)C(=O)N(c2ncccn2)C1c1cccs1)c1ccco1 (stereo not drawn),EC50,[5],39.9 µM (active)
same,EC50,[6],31.5 µM (active)
N#CC1=C(N)OC2=C(C(=O)CCC2)C1c1ccc2c(c1)OCO2 (stereo not drawn),EC50,[5],> 300 µM (not active)
same,EC50,[6],> 300 µM (not active)
CC(NC(=O)c1ccccc1)C(=O)N/N=C/c1ccc(O)cc1 (stereo not drawn),AC50,[1],2.14 µM (active)
Cc1cccc(Cn2nc(-n3cccc3)c3c(C)cc(C)nc32)c1,EC50,[2],12 µM (active)
same,EC50,Streptococcus,> 150 µM (not active)
same,EC50,Streptokinase A,15.1 µM (active)
CCC(C)[C@@H](N)C(=O)N/N=C/c1cccc2nccnc12 (stereo partly drawn),EC50,[5],> 300 µM (not active)
same,EC50,[6],> 300 µM (not active)
O=P(N[C@@H](c1ccccc1)[C@@H]1C[C@H]1CO)(c1ccccc1)c1ccccc1,AC50,Cytochrome P450 3A4,15.8 µM (inconclusive)
COC(=O)c1cccc(NC(=O)Cc2coc3cc(OC)ccc23)c1,IC50,[3],> 20 µM (inactive)
CC(=O)OC1C2C(OC(=O)Cc3ccccc3)C(C)CC2(OC(C)=O)C(=O)/C(C)=C/C2C(CC[C@@]13CO3)C2(C)C (stereo partly drawn),AC50,Cytochrome P450 3A4,3.98 µM (inconclusive)
CC1(C)Cc2c(c(N3CCOCC3)nc3sc4c(=O)nc[nH]c4c23)CS1,IC50,[3],> 20 µM (inactive)
CCC(=O)NC(=S)NNC(=O)c1ccc(OC)cc1,IC50,[3],> 20 µM (inactive)
N#C/C(=C(/O)c1cc2ccccc2o1)c1nc2ccccc2s1,EC50,[2],9.28 µM (active)
same,EC50,Streptococcus,42.4 µM (active)
same,EC50,[5],> 300 µM (not active)
same,EC50,[6],> 300 µM (not active)
Cc1ccc(Cn2c(N/N=C/c3ccncc3)nc3c2c(=O)n(C)c(=O)n3C)cc1,AC50,[1],1.77 µM (active)
COC(=O)CNC(=O)C1(C)C=CC2(CCCCC2)N1C(C)=O (stereo not drawn),AC50,Cytochrome P450 3A4,25.1 µM (inconclusive)
Cn1nc(N)c2c(-c3ccc(Cl)cc3)c(C#N)c(N)nc21,IC50,[3],> 20 µM (inactive)
COc1ccc(CNc2oc(COc3ccc(Cl)cc3)nc2C#N)cc1,EC50,[7],1.36 µM (active)
same,IC50,[8],4 µM (not active)
same,EC50,[9],> 60 µM (not active)
CCCC/N=C(/C)c1c(O)oc2ccccc2c1=O,IC50,[8],19.7 µM (not active)
"COc1cc(-c2coc3cc(OCc4ccccc4)c(OC)c(O)c3c2=O)cc(O)c1OC [IRIGENIN, 7-BENZYL ETHER]",AC50,Cytochrome P450 3A4,15.8 µM (inconclusive)
COC(=O)C1=C(C)N(CC2CC2)C(NCc2cccc(Cl)c2)=N[C@H]1c1ccccc1,CC50,[10],22.5 µM (active)
O=C(NCc1cccnc1)c1ccccc1CCc1ccccc1,IC50,[8],18.8 µM (not active)
O=C(CSc1nnc(CNC(=O)c2ccccc2)o1)NCCc1ccccc1,EC50,[2],> 150 µM (not active)
same,EC50,Streptococcus,> 150 µM (not active)
same,EC50,Streptokinase A,> 150 µM (not active)
Nc1cc(Cl)c([N+](=O)[O-])cc1O,AC50,Cytochrome P450 3A4,31.6 µM (inconclusive)
